# Experimental data taken from patent EP0591697B1, “Cloning and characterization of the growth hormone releasing hormone receptor” (Thorner, Michael Oliver, priority 1992, dated 1994).
# Entries after “also recorded” stand apart in the source; their conditions may differ. Where no end group is shown, it is not given here.
# What was measured:
# GHRH-R [1] = assay: GHRH binding assay in crude anterior pituitary membrane pellets (125I-GHRHa); parameters: species or system ovine; conditions: for displacement of GHRH in ovine pituitary: at 500 nM; for competition for the GHRHa binding site: at 100 nanomolar concentrations
# Method: Specific binding is defined as the difference in the binding seen with 20 pM iodinated analog alone and binding of the analog in the presence of 10 nM non-iodinated GHRHa.
# All steps were performed at 4°C. Frozen ovine or bovine anterior pituitaries (ovine: approximately 1 gm/pituitary obtained from Dr. Ian Clarke, Melbourne, Australia; bovine: approximately 2.5 gm/pituitary special handling from Pel-Freez, of Rogers, Arkansas) were washed of blood, cleaned of connective tissue and homogenized (using a Dounce homogenizer) in 50mM HEPES buffer, 100 mM NaCl, 10mM EDTA, 0.1 µM EGTA, pH 7.4 with 0.5 mM PMSF (phenyl methyl sulfonyl fluoride), 10 µg/ml leupeptin, 10 µg/ml pepstatin A, and 200 U/ml (units/ml) aprotinin. This buffer is used to remove endogenous GTP which might be bound to G proteins and to restore high affinity binding. The homogenate was spun at top speed in a microfuge and the supernatant discarded. The upper (membrane) layer of the pellet was then gently resuspended in binding buffer containing 50 mM Tris buffer, 5 mM EGTA, 5 mM MgCl2, 50µg/ml alamethicin, 30 µg/ml bacitracin and other protease inhibitors as above.
# 1/50 pituitary equivalent per tube was incubated in binding buffer with approximately 100,000 counts of iodinated probe in a volume of 500 µl at room temperature for 1 hour. The total counts delivered and the percent of counts bound for each tube was determined with 3 to 6 replicates per experimental condition. Saturation binding profiles were analyzed with the computer program Ligand which performs a statistically weighted least squares fit to the exact ligand binding equation in nontransformed coordinates.
# GHRH-R [2] = assay: Photoaffinity cross-linking of receptor in pituitary membranes, SDS-PAGE autoradiography; type: binding, ovine
# Method: Photoprobe binding in ovine pituitary membrane pellets was determined by γ-counting and UV induced cross-linking was examined by autoradiagraphy of sodium dodecylsulfate polyacrylamide electrophoresis (SDS-PAGE) gels. ^125I-GHRHa-ANB-NOS probe bound with an affinity of about one nanomole, nM (compared to about 160 picomole, pM, for GHRHa).
# Photoprobe binding to membranes was evaluated with crude membrane binding assay and then analyzed further by SDS-PAGE electrophoresis to identify the binding sites. Photoprobes were incubated in the dark, photolysed for 10 minutes with a long wave (366 nm) UV lamp, and then the samples were pelleted. The pellets were counted and then extracted by boiling directly in SDS sample buffer (total SDS extracts). Alternatively, the labeled pellets were extracted in a mild detergent solution (5 mM CHAPS) centrifuged, and the chloroform/methanol concentrated supernatants denatured with SDS buffer (CHAPS extracts). These samples were then electrophoresed in SDS gels and autoradiographed.
# [3] = target: T1, secretin and VIP receptors (Homo sapiens, UniProt P47872); conditions: human pancreas, cited from earlier work; for inhibition: at 10 µM, 125I-secretin
# T1 construct: host or cells: human pancreas
# GHRH-R [4] = target: T2, GHRH-R (Homo sapiens, UniProt Q02643); assay: Iodinated GHRHa binding to COS cells / COS cell membranes transfected with pCDM8 containing HAP 7 cDNA; conditions: for binding of iodinated GHRH in presence of peptide: 100 nM of peptide
# T2 construct: expressed in transfected cells
# T2 sequence (Q02643 23-423): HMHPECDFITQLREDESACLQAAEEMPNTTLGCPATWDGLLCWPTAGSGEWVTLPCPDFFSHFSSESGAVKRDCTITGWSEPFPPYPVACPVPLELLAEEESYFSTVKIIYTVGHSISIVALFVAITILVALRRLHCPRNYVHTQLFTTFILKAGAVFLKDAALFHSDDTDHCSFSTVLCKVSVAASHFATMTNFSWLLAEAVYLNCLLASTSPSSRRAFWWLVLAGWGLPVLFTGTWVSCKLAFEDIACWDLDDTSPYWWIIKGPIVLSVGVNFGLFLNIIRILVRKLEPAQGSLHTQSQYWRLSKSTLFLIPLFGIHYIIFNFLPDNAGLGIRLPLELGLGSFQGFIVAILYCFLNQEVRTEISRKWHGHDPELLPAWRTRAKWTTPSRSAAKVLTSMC
# Method: The bars indicate the total counts bound to the cells after incubation with ^125I-GHRHa or in the presence of gradually increasing amounts of non-iodinated GRF.
# Binding in the presence of increasing concentrations of competing peptides is shown. […] Each point represents an N of 6 ± standard error. Non-specific binding was 20-30% of total counts in COS cell membranes, and 40-60% in crude pituitary membranes.
# Cos-1 cells were transfected with the vector formed by splicing pCDM8 and HAP cDNA, and Cos-1 cell membranes were prepared 72 hours subsequently. Cos-1 cells were transfected using 10 µg of plasmid DNA per 6x10^5 cells in a 100-mm dish using the DEAE-dextran method described by Cullen. […] COS cell cultures were transfected in parallel with pCDM8 containing a cDNA encoding the rat AT1 angiotensin II receptor.
# T1 sequence (P47872 23-440): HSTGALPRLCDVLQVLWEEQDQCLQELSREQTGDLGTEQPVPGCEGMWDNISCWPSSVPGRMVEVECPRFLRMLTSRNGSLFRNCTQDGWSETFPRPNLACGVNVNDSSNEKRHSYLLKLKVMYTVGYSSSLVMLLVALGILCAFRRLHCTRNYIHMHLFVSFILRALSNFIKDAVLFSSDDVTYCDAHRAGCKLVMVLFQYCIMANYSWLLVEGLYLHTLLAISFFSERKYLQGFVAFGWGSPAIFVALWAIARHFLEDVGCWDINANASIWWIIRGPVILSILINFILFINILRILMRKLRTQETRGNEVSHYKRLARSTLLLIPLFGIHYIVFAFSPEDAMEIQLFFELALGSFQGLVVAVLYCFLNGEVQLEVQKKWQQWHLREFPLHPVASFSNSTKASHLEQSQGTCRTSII
compound,measurement,setting,value
"O[C@H](CS)[C@H](O)CS (racemic) [DTT, dithiothreitol]",specific binding in the GHRH assay after preincubation,GHRH-R [1]; 1 mM dithiothreitol,completely eliminated
Nc1nc2c(ncn2[C@@H]2O[C@H](COP(=O)(O)OP(=O)(O)OP(O)(O)=S)[C@@H](O)[C@H]2O)c(=O)[nH]1 [GTPγS],displacement of both photoprobes from membrane pellets,GHRH-R [1]; 50 µM GTPγS,partially displaced
same,reduction of specific binding of GHRHa radioligand,GHRH-R [1]; 50 µM GTPγS,up to 65%
same,reduction of 55 kDa cross-linked band,GHRH-R [2]; 50 µM GTPγS,over 50%
CC[C@H](C)[C@H](NC(=O)CNC(=O)[C@H](CC(=O)O)NC(=O)[C@H](CO)NC(=O)[C@@H](N)Cc1c[nH]cn1)C(=O)N[C@@H](Cc1ccccc1)C(=O)N[C@H](C(=O)N[C@@H](CC(=O)O)C(=O)N[C@@H](CO)C(=O)N[C@@H](Cc1ccc(O)cc1)C(=O)N[C@@H](CO)C(=O)N[C@@H](CCCNC(=N)N)C(=O)N[C@@H](Cc1ccc(O)cc1)C(=O)N[C@@H](CCCNC(=N)N)C(=O)N[C@@H](CCCCN)C(=O)N[C@@H](CCC(N)=O)C(=O)N[C@@H](CCSC)C(=O)N[C@@H](C)C(=O)N[C@H](C(=O)N[C@@H](CCCCN)C(=O)N[C@@H](CCCCN)C(=O)N[C@@H](Cc1ccc(O)cc1)C(=O)N[C@@H](CC(C)C)C(=O)N[C@@H](C)C(=O)N[C@@H](C)C(=O)N[C@H](C(=O)N[C@@H](CC(C)C)C(=O)NCC(=O)N[C@@H](CCCCN)C(=O)N[C@@H](CCCNC(=N)N)C(=O)N[C@@H](Cc1ccc(O)cc1)C(=O)N[C@@H](CCCCN)C(=O)N[C@@H](CCC(N)=O)C(=O)N[C@@H](CCCNC(=N)N)C(=O)N[C@H](C(=O)N[C@@H](CCCCN)C(=O)N[C@@H](CC(N)=O)C(=O)N[C@@H](CCCCN)C(N)=O)C(C)C)C(C)C)C(C)C)[C@@H](C)O [PACAP],displacement of GHRH in ovine pituitary,GHRH-R [1],significant displacement
same,competition for the GHRHa binding site,GHRH-R [1],no competition; also recorded: did not compete
GHRH(1-29)-NH2,inhibition,[3],20%
"PHM: competing peptide of the VIP family tested at 100 nM (HADGVFTSDFSKLLGQLSAKKYLESLM; ends and bridges not checked; UniProt P01282 81-107, looked up)",binding of iodinated GHRH in presence of peptide,GHRH-R [4],uneffected
VIP: vasoactive intestinal peptide,displacement of GHRH in ovine pituitary,GHRH-R [1],not
same,competition for the GHRHa binding site,GHRH-R [1],no competition; also recorded: did not compete
same,effect on 55 kDa cross-linked band,GHRH-R [2]; 100 nM VIP,unaffected
same,effect on bound counts of GHRHa,"GHRH-R [4]; 100 nM VIP, transfected COS cells, Figure 15",no effect
same,binding of iodinated GHRH in presence of peptide,GHRH-R [4],uneffected
same,inhibition,[3],20%
calcitonin,binding of iodinated GHRH in presence of peptide,GHRH-R [4],uneffected
galanin,binding of iodinated GHRH in presence of peptide,GHRH-R [4],uneffected
helodermin,Kd,"[3]; using 125I-secretin, read-out: Kds",200 nM
parathyroid hormone,binding of iodinated GHRH in presence of peptide,GHRH-R [4],uneffected
secretin,binding of iodinated GHRH in presence of peptide,GHRH-R [4],uneffected
somatostatin,binding of iodinated GHRH in presence of peptide,GHRH-R [4],uneffected
